Source: a compilation of properties of binary mixtures (doi:10.1039/c7qm00510e)

Assay: xn = mol fraction of the nth substance listed
Settings: 101 kPa

CCCCCCCCCCOS(=O)(=O)[O-].CC[n+]1ccn(C)c1 + O
electrical conductivity [S/m]
Settings | 303.15 K | 313.15 K | 323.15 K | 333.15 K | 343.15 K | 353.15 K | 363.15 K | 372.95 K
x1 = 0.075 | 2.53 | 3.16 | 3.83 | 4.55 | 5.29 | 6.06 | – | –
x1 = 0.317 | – | – | – | – | 1.34 | 1.63 | 1.96 | 2.23
